In ChEMBL document CHEMBL3044916, “Attract-and-kill: a new strategy for the management of the potato tuber moths Phthorimaea operculella (Zeller) and Symmetrischema tangolias (Gyen) in potato: laboratory experiments towards optimising pheromone and insecticide concentration” (2010):
Activity calls are given as the source filed them. No cut-off for these calls is given here.

Experiments:
[1] = tested on: Phthorimaea operculella; test: Insecticidal activity against Phthorimaea operculella assessed as mortality at 1.25 g/l after 48 hr; assay type: functional
[2] = tested on: Symmetrischema tangolias; test: Insecticidal activity against Symmetrischema tangolias assessed as mortality at 5 g/l after 24 hr; assay type: functional
[3] = tested on: Phthorimaea operculella; test: Insecticidal activity against Phthorimaea operculella assessed as mortality at 0.35 g/l after 48 hr; assay type: functional
[4] = tested on: Phthorimaea operculella; test: Insecticidal activity against Phthorimaea operculella assessed as mortality at 5 g/l after 24 hr; assay type: functional
[5] = tested on: Symmetrischema tangolias; test: Insecticidal activity against Symmetrischema tangolias assessed as mortality at 5 g/l after 24 hr by attract-and-kill assay; assay type: functional, organism-based
[6] = tested on: Symmetrischema tangolias; test: Insecticidal activity against Symmetrischema tangolias assessed as mortality at 0.65 g/l after 24 hr; assay type: functional
[7] = tested on: Symmetrischema tangolias; test: Insecticidal activity against Symmetrischema tangolias assessed as mortality at 0.35 g/l after 48 hr; assay type: functional
[8] = tested on: Phthorimaea operculella; test: Insecticidal activity against Phthorimaea operculella assessed as mortality at 0.65 g/l after 24 hr; assay type: functional
[9] = tested on: Symmetrischema tangolias; test: Insecticidal activity against Symmetrischema tangolias assessed as mortality at 5 g/l after 24 hr by attract-and-kill assay relative to control; assay type: functional
[10] = tested on: Phthorimaea operculella; test: Insecticidal activity against Phthorimaea operculella assessed as mortality at 5 g/l after 24 hr by attract-and-kill assay relative to control; assay type: functional
[11] = tested on: Symmetrischema tangolias; test: Insecticidal activity against Symmetrischema tangolias assessed as mortality at 2.5 g/l after 24 hr; assay type: functional
[12] = tested on: Phthorimaea operculella; test: Insecticidal activity against Phthorimaea operculella assessed as mortality at 2.5 g/l after 48 hr; assay type: functional
[13] = tested on: Symmetrischema tangolias; test: Insecticidal activity against Symmetrischema tangolias assessed as mortality at 0.35 g/l after 24 hr; assay type: functional
[14] = tested on: Phthorimaea operculella; test: Insecticidal activity against Phthorimaea operculella assessed as mortality at 5 g/l after 48 hr; assay type: functional
[15] = tested on: Phthorimaea operculella; test: Insecticidal activity against Phthorimaea operculella assessed as mortality at 5 g/l after 4 days by attract-and-kill assay relative to control; assay type: functional; settings: 96 h
[16] = tested on: Phthorimaea operculella; test: Insecticidal activity against Phthorimaea operculella assessed as mortality at 1.25 g/l after 24 hr; assay type: functional
[17] = tested on: Symmetrischema tangolias; test: Insecticidal activity against Symmetrischema tangolias assessed as mortality at 1.25 g/l after 24 hr; assay type: functional
[18] = tested on: Phthorimaea operculella; test: Insecticidal activity against Phthorimaea operculella assessed as mortality at 0.35 g/l after 24 hr; assay type: functional
[19] = tested on: Phthorimaea operculella; test: Insecticidal activity against Phthorimaea operculella assessed as mortality at 0.65 g/l after 48 hr; assay type: functional
[20] = tested on: Symmetrischema tangolias; test: Insecticidal activity against Symmetrischema tangolias assessed as mortality at 5 g/l after 3 days by cage bio assay relative to control; assay type: functional; settings: 72 h
[21] = tested on: Phthorimaea operculella; test: Insecticidal activity against Phthorimaea operculella assessed as mortality at 5 g/l after 3 days by cage bio assay relative to control; assay type: functional; settings: 72 h
[22] = tested on: Phthorimaea operculella; test: Insecticidal activity against Phthorimaea operculella assessed as mortality at 5 g/l after 24 hr by attract-and-kill assay; assay type: functional, organism-based
[23] = tested on: Symmetrischema tangolias; test: Insecticidal activity against Symmetrischema tangolias assessed as mortality at 5 g/l after 8 days by cage bio assay relative to control; assay type: functional; settings: 192 h
[24] = tested on: Symmetrischema tangolias; test: Insecticidal activity against Symmetrischema tangolias assessed as mortality at 5 g/l after 36 days by cage bio assay relative to control; assay type: functional; settings: 864 h
[25] = tested on: Symmetrischema tangolias; test: Insecticidal activity against Symmetrischema tangolias assessed as mortality at 2.5 g/l after 48 hr; assay type: functional
[26] = tested on: Symmetrischema tangolias; test: Insecticidal activity against Symmetrischema tangolias assessed as mortality at 0.65 g/l after 48 hr; assay type: functional
[27] = tested on: Symmetrischema tangolias; test: Insecticidal activity against Symmetrischema tangolias assessed as mortality at 5 g/l after 4 days by attract-and-kill assay relative to control; assay type: functional; settings: 96 h
[28] = tested on: Symmetrischema tangolias; test: Insecticidal activity against Symmetrischema tangolias assessed as mortality at 5 g/l after 48 hr; assay type: functional
[29] = tested on: Phthorimaea operculella; test: Insecticidal activity against Phthorimaea operculella assessed as mortality at 2.5 g/l after 24 hr; assay type: functional
[30] = tested on: Phthorimaea operculella; test: Insecticidal activity against Phthorimaea operculella assessed as mortality at 5 g/l after 6 days by cage bio assay relative to control; assay type: functional; settings: 144 h
[31] = tested on: Phthorimaea operculella; test: Insecticidal activity against Phthorimaea operculella assessed as mortality at 5 g/l after 36 days by cage bio assay relative to control; assay type: functional; settings: 864 h
[32] = tested on: Symmetrischema tangolias; test: Insecticidal activity against Symmetrischema tangolias assessed as mortality at 1.25 g/l after 48 hr; assay type: functional

CC1(C)C(C=C(Cl)Cl)C1C(=O)OC(C#N)c1ccc(F)c(Oc2ccccc2)c1 (configuration not stated) [CYFLUTHRIN] was tested, and the mortality at 1250 µg/mL [1] was 63.2%, the mortality at 5000 µg/mL [2] was 59.4% and the mortality at 350 µg/mL [3] was 31.6%. The mortality at 5000 µg/mL [4] was 57.9%, the Activity [5] was “Active” and the mortality at 650 µg/mL [6] was 26.6%. It also gave a mortality at 350 µg/mL [7] of 22.2%, a mortality at 650 µg/mL [8] of 26.3% and a mortality at 5000 µg/mL [9] of 40%. For the same compound, the mortality at 5000 µg/mL [10] was 40%, the mortality at 2500 µg/mL [11] was 52.7% and the mortality at 2500 µg/mL [12] was 63.2%. For the same compound, the mortality at 350 µg/mL [13] was 10.5%, the mortality at 5000 µg/mL [14] was 84.2% and the mortality at 5000 µg/mL [15] was 100%. The mortality at 1250 µg/mL [16] was 38.8%, the mortality at 1250 µg/mL [17] was 15.6% and the mortality at 350 µg/mL [18] was 21.1%. It also gave a mortality at 650 µg/mL [19] of 47.4%, a mortality at 5000 µg/mL [20] of 100% and a mortality at 5000 µg/mL [21] of 100%. For the same compound, the Activity [22] was “Active”, the mortality at 5000 µg/mL [23] was 100% and the mortality at 5000 µg/mL [24] was 53%. For the same compound, the mortality at 2500 µg/mL [25] was 68.3%, the mortality at 650 µg/mL [26] was 31.6% and the mortality at 5000 µg/mL [27] was 100%. The mortality at 5000 µg/mL [28] was 77.7%, the mortality at 2500 µg/mL [29] was 47.4% and the mortality at 5000 µg/mL [30] was 100%. The mortality at 5000 µg/mL [31] was 44% and the mortality at 1250 µg/mL [32] was 42.2%.
